{
  "source": "paper PMC10945739",
  "about": "“Exploring Cassia mimosoïdes as a promising natural source of steroids with potent anti-cancer, urease inhibition, and antimicrobial properties” (RSC Advances, 2024)",
  "key": {"[1]": {"test_system": "human HepG2 hepatic cancer cells", "test": "MTT cell viability assay", "type": "cell-based", "conditions": "HepG2, MTT, 48 hours, at 200 μg", "procedure": "The human liver cells were cultivated in Dulbecco's modified Eagle medium (DMEM) in which 100 U mL^−1 penicillin, 10% fetal bovine and […] streptomycin were added and kept at 37 °C in a […] carbon dioxide induced humidified environment. The human liver cells prepared as per above procedure were then treated with synthesized compounds diluted to 0.05% DMSO concentration.\nUsing MTT assay, the % viability of cancer cells 36 was evaluated. According to the standard procedure, HepG2 cells were treated with various dosages of synthesized compounds for 48 hours each. The cells were then incubated for 4 hours at 37 °C with 10μ MTT reagent (5 mg mL^−1). Next, in 150 μL DMSO was added to dissolve formazan crystals. The λmax was recorded at 409 nm in a microplate reader (thermos scientific)."}, "Jack bean urease": {"target": "Jack bean urease (Canavalia ensiformis, UniProt P07374)", "sequence (P07374 whole entry, looked up)": "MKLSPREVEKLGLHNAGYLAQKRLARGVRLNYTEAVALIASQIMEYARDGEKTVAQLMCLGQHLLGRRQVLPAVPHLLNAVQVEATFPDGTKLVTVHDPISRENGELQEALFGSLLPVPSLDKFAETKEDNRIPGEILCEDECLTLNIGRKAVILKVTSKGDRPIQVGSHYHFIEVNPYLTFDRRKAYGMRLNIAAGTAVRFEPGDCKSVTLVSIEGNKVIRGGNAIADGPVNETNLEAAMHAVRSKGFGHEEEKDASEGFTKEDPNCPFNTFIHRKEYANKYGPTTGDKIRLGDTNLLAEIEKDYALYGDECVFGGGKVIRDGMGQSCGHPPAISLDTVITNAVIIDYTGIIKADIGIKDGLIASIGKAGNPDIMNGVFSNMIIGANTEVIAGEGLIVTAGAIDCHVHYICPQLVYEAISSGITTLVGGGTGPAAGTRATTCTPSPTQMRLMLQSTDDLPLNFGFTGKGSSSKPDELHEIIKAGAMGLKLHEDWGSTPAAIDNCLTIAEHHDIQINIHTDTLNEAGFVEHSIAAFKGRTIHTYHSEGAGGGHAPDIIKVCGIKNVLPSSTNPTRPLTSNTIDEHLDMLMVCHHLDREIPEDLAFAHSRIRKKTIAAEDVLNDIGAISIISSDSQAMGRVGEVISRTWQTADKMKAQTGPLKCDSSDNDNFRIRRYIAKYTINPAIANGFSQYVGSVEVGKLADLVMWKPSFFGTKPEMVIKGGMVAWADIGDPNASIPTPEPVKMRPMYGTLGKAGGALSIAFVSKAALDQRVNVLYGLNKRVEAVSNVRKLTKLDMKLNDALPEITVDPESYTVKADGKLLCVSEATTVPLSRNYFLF", "test": "biochemical", "type": "biochemical", "procedure": "The inhibition potential of the isolated compounds against urease was investigated using a SpectraMax M2 reader using 96-well microplates.\nThe kinetic assay involved preparing varying concentrations of both the test compound and the substrate (urea), spanning 0 μM, 5 μM, 10 μM, 15 μM, and 20 μM. The resulting data was utilized to construct a Lineweaver–Burk plot.\nIn 96-well plates were incubated at 37 °C for 15 min, reaction mixtures consisting of 25 μL of test compounds (each 0.5 mM), 25 μL of enzyme solution (Jack bean urease) and 55 μL of buffers containing 20.79 mM urea. The indophenol method described by Weatherburn[21] was used to determine urease inhibitor activity by measuring ammonia production. Briefly, to each well were added 70 μL of alkaline reagent (0.5% w/v NaOH and 0.1% active chloride, NaOCl) and 45 μL of phenolic reagent (1% w/v phenol and 0.005% w/v sodium nitroprusside). The microplate reader (Molecular Devices, USA) was used to measure the increase in absorbance at 650 nm after 50 min. A final volume of 245 μL was required to perform all reactions in a triplicate. The results (absorbance change per minute) were processed using SoftMax Pro software (Molecular Devices, USA). All assays were performed at pH 6.8. Inhibition percentages were calculated from the formula% Inhibition = 100 − (Abs(sample)/Abs(control)) × 100where “A” is the absorbance of the “test well” as well as the “control”. Thiourea was used as a standard."}, "B. subtilis": {"test_system": "B. subtilis", "test": "Antibacterial activity, agar well diffusion method", "type": "cell-based", "conditions": "Table S2; unit not given", "from_the_text": "(§1) Antibacterial activity of the isolated and synthesized compounds was perform using agar well method. Three bacterial strains selected for this experiment were H.pylori, B. subtilis and S. aureus, for all of three strains compounds show good to mederate inhibition. […] The presence of H. pylori in the stomach has been associated with a range of gastric disorders, including peptic ulcers, gastritis, and an increased risk of gastric cancer. The bacterium's ability to manipulate the gastric environment through urease activity underscores its role in the development and progression of these conditions. Different studies have targeted H. pylori and its urease activity as potential avenues for therapeutic intervention and disease management (Fig. 4).\n(§2) The agar well diffusion method evaluated every compound separately. Each sterile Petri plate was aseptically filled with 20 mL of the agar medium, which was then […]. The media then solidified at room temperature. Various bacterial strains were put to agar plates using a sterile cotton swab. A 6 mm-diameter well was drilled using a sterilized cork borer. Each isolated compound was dissolved in 1 mL of a 20% DMSO solution. In a well with a diameter of 6 mm, […] of the standard drug and isolated compounds were added. […] The zone of inhibition was graphed and quantified in millimeters.[20]"}, "S. aureus": {"test_system": "S. aureus", "test": "Antibacterial activity, agar well diffusion method", "type": "cell-based, Staphylococcus aureus", "conditions": "Table S2 and b89; unit not given"}, "H.pylori": {"test_system": "H.pylori", "test": "Antibacterial activity, agar well diffusion method", "type": "cell-based, Helicobacter pylori", "conditions": "Table S2 and b89; unit not given", "from_the_text": "as §1, §2"}},
  "note": "Read-outs that look alike come from different tables or passages of the source.",
  "data": [
    {"smiles": "O=c1cc(-c2ccc(O)c(O)c2)oc2cc(O)c([C@@H]3O[C@H](CO)[C@@H](O)[C@H](O)[C@H]3O)c(O)c12", "note": "[Compound 7, Luteolin-6-C-β-D-glucopyranoside]", "values": [
      {"measurement": "% Viability", "setting": "[1]", "value": "97.94 ± 3.53", "unit": "%"},
      {"measurement": "IC50", "setting": "Jack bean urease; pH 6.8, read-out: IC50 ± SEM, urease", "value": "1220 ± 430", "unit": "nM"},
      {"measurement": "% Inhibition of urease", "setting": "Jack bean urease; test compounds each 0.5 mM, pH 6.8", "value": 81.57, "unit": "%"},
      {"measurement": "IC50", "setting": "Jack bean urease; unit inferred, read-out: IC50, urease (printed in Fig. 6)", "value": "1220 ± 430", "unit": "nM"},
      {"measurement": "Antibacterial activity against B. subtilis", "setting": "B. subtilis", "value": 0.12},
      {"measurement": "Antibacterial activity (MIC) against S. aureus", "setting": "S. aureus", "value": 0.78},
      {"measurement": "Antibacterial activity (MIC) against H.Pylori", "setting": "H.pylori", "value": 1.23}
    ]}
  ]
}
